Source: patent publication US9994604B2, “Pyrazolotriazolyl nucleoside analogues and oligonucleotides comprising them” (Bio-Lab Ltd., priority 2012, dated 2018)
[APT] = modified deoxyadenosine dA^PT as named in the publication

Legend:
[1] = system: 24-mer single-stranded target DNA sequence of SEQ ID NO: 4 (X=T); test: thermal denaturation (melting) studies of DNA duplexes followed by absorption spectroscopy; assay type: binding; conditions: duplex with SEQ ID NO: 4 (X=T); 1 μM each strand, 10 mM sodium phosphate pH 7, 150 mM NaCl, 1 mM EDTA; 260 nm
Procedure: Oligonucleotide concentrations were 1 μM (each strand) in a 10 mM sodium phosphate, pH 7, buffer containing 150 mM NaCl and 1 mM EDTA. Temperature was increased from 10° C. to 80° C. over 140 min. Melting curves were recorded at X, =260 nm.
The influence of dA replacement (one or two) by the pyrazolo[1,5-a]-1,3,5-triazine derivative (dA^PT) on duplex stability was investigated by thermal denaturation studies, followed by absorption spectroscopy, using DNA duplexes obtained by mixing the modified oligonucleotides of SEQ ID NOs. 1 and 2 with the 24-mer single-stranded target DNA sequence of SEQ ID NO: 4 (X=T). The natural deoxyadenosine was also incorporated in the same positions (SEQ ID NO: 5) for comparison (duplex obtained by hybridization of the oligonucleotides of SEQ ID NOs: 4+5).

[2] = system: oligonucleotide of SEQ ID NO: 4 (X=T); test: CD spectra of DNA duplexes; assay type: physicochemical; conditions: 4 μM each strand, 10 mM sodium phosphate pH 7, 150 mM NaCl, 1 mM EDTA, 10° C., 220-300 nm; compared with unmodified duplex 4+5
Description: CD spectra of the DNA duplexes obtained from the hybridization of the oligonucleotides of SEQ ID NOs: 4+1 and 4+2, containing one or two dA^PT, respectively, were compared to that of the parent unmodified duplex obtained by hybridization of the oligonucleotides of SEQ ID NOs: 4+5.

[3] = acidic hydrolysis (stability of the glycosidic bond); assay type: physicochemical; conditions: 80% acetic acid at 65° C. for 45 hr followed by concentrated ammonium hydroxide
Description: In order to study the stability of the glycosidic bond of the dA^PT described above in acidic conditions, compared with that of dA, two oligonucleotides containing a single incorporation of either dA^PT (SEQ ID NO: 3) or the natural dA (SEQ ID NO: 6) were synthesized.

HIV = conditions: cited from earlier work
HBV = conditions: cited from earlier work
human platelet = conditions: cited from earlier work
mouse leukemia cells = conditions: cited from earlier work

Compound: SEQ ID NO: 5: unmodified 5′d-(TAC CGC GTG CAA CCC TCT)3′ with natural deoxyadenosine (DNA TACCGCGTGCAACCCTCT; DNA, backbone not given here)
- melting temperature [Tm] [1]: 69 °C

Compound: SEQ ID NO: 2: 18-mer 5′d-(TA^PTC CGC GTG CAA^PT CCC TCT)3′ with two dA^PT incorporations (DNA TNCCGCGTGCANCCCTCT; listed as DNA, chemistry not fully specified)
- melting temperature [Tm] [1]: 69.3 °C
- duplex form from CD spectra [2]: still forms a B-form duplex

Compound: SEQ ID NO: 6: unmodified 5′d-(TTC CTC TTT CTA CCC TCT)3′ with natural dA (DNA TTCCTCTTTCTACCCTCT; DNA, backbone not given here)
- stability in acidic conditions (degradation) [3]: fully fragmented

Compound: Nc1ncnc2c([C@H]3O[C@@H](CO)[C@H](O)[C@@H]3O)cnn12 [4-amino-8-(β-L-ribofuranosyl)pyrazolo[1,5-a]-1,3,5-triazine]
- anti-HIV activity (HIV): no significant
- anti-HBV activity (HBV): no significant

Compound: CNc1nc(C)nc2c([C@H]3C[C@H](OP(=O)(O)O)[C@@H](COP(=O)(O)O)O3)cnn12 [compound 2, 8-(2′-deoxy-β-D-ribofuranosyl)-2-methyl-4-(N-methylamino)pyrazolo[1,5-a]-1,3,5-triazine-3′,5′-bisphosphate]
- inhibition of ADP-induced human platelet aggregation (human platelet): strongly inhibits
- inhibition of ADP-induced human platelet shape change (human platelet): strongly inhibits

Compound: Nc1ncnc2c([C@@H]3O[C@H](CO)[C@@H](O)[C@H]3O)cnn12 [compound 10, 4-amino-8-(β-D-ribofuranosyl)pyrazolo[1,5-a]-1,3,5-triazine]
- activity compared with formycin (mouse leukemia cells; all systems tested): more active than formycin
- inhibitory activity against various mouse leukemia cells (mouse leukemia cells): moderate inhibitory activity

Compound: SEQ ID NO: 3: 5′d-(TTC CTC TTT CTA^PT CCC TCT)3′, a sole dA^PT and no other purine (DNA TTCCTCTTTCTNCCCTCT; listed as DNA, chemistry not fully specified)
- stability in acidic conditions (degradation) [3]: not degraded

Compound: SEQ ID NO: 1: 18-mer 5′d-(TAC CGC GTG CAA^PT CCC TCT)3′ with one dA^PT incorporation (DNA TACCGCGTGCATCCCTCT; DNA, [APT] at 12, backbone not given here)
- melting temperature [Tm] [1]: 69.6 °C
- duplex form from CD spectra [2]: still forms a B-form duplex
